{"source": "patent US9290473B2", "about": "“Inhibitors of phosphatidylinositol-3-kinase (PI3) and inducers of nitric oxide (NO)” (COUCIL OF SCIENTIFIC & INDUSTRIAL RESEARCH, priority 2009, dated 2016)", "key": {"[1]": {"tested_on": "pancreatic cancer cell line MIA PaCa-2", "assay": "Cell viability, trypan blue exclusion, MIA PaCa-2", "assay_type": "cell-based, human", "details": "72 hours incubation, read-out: Activity (IC50) MIAPaCa-2", "text": "(§1) Following cancer cell lines were used: chronic myeloid leukemia cell lines K562, KU812; acute myeloid leukemia cell lines HL60, U937; T-lymphoblastic leukemia cell line Molt-4; prostate cancer cell line PC-3; breast cancer cell line MCF-7; pancreatic cancer cell line MIA PaCa-2. These cancer cell lines were maintained in tissue culture in standard growth medium containing 10% heat-inactivated fetal bovine serum (FBS). Normal human peripheral blood mononuclear cells (PBMC) were separated from whole blood by Ficoll/Hypaque density gradient centrifugation. Peripheral blood samples were collected from normal donors with due approval from the Human Ethics Committee of Indian Institute of Chemical Biology, Kolkata, India, and all experiments with human blood were conducted under an approved institutional Human Ethics committee protocol. Informed consent was provided according to the Declaration of Helsinki. Cancer cell lines and PBMC (5×10^3) in triplicate were incubated in 0.2 mL of standard growth medium containing 10% FBS with varying concentrations of test compounds of the present invention. After 72 hours of incubation, cells were collected by centrifugation (at 1000 g for 5 minutes) and cell-viability was determined by the trypan blue exclusion assay. At least 200 cells were examined in each sample. Because of monolayer culture, treated and untreated PC-3, MCF-7 and MIA PaCa-2 cells were detached from the wells by treatment with Cell Dissociation Solution (Sigma Chemical, St. Louis, Mo.) before counting. Data are represented as IC50 (minimum concentration required to inhibit the viability by 50%) in Table 5."}, "[2]": {"tested_on": "chronic myeloid leukemia cell line KU812", "assay": "Cell viability, trypan blue exclusion, KU812", "assay_type": "cell-based", "details": "Homo sapiens, 72 hours incubation", "text": "as §1"}, "[3]": {"tested_on": "breast cancer cell line MCF-7", "assay": "Cell viability, trypan blue exclusion, MCF-7", "assay_type": "cell-based, human", "details": "72 hours incubation", "text": "as §1"}, "[4]": {"tested_on": "endothelial nitric oxide synthase (eNOS)", "assay": "NOS isoform siRNA transfection of MIA PaCa 2 cells, apoptosis and eNOS expression", "assay_type": "cell-based, human", "details": "siRNA 48 hr, then 30 μM for 24 hr", "procedure": "MIA PaCa 2 cells were transfected with control siRNA, nNOS siRNA, iNOS siRNA or eNOS siRNA (purchased from Santa Cruz Biotechnology) for 48 hr. Transfections were carried out following the manufacturer's instructions. The transfection reagent used for siRNA transfection was purchased from Santa Cruz. Cells were then treated with vehicle control or Compound 1 (30 μM) for 24 hr. Apoptosis was analyzed by flow cytometry. To confirm that transfectin with siRNAs attenuate the protein expression of respective NOS isoforms, Western blot was performed with whole cell lysates."}, "[5]": {"tested_on": "acute myeloid leukemia cell line U937", "assay": "Cell viability, trypan blue exclusion, U937", "assay_type": "cell-based", "details": "Homo sapiens, U-937, 72 hours incubation", "text": "as §1"}, "normal human PBMC": {"tested_on": "normal human PBMC", "assay": "Apoptosis/necrosis of normal human PBMC by flow cytometry", "assay_type": "cell-based", "details": "30 μM, 24 hours", "procedure": "FIG. 2C indicates flow cytometric determination of apoptosis and necrosis of normal human PBMC by Compound 1 (30 μM) and Compound 7 (30 μM) after incubation for 24 hours."}, "[6]": {"tested_on": "Ehrlich ascites carcinoma (EAC)", "assay": "Ehrlich ascites carcinoma (EAC) model in vivo", "details": "30 mg/kg body weight intraperitoneally thrice a week for three weeks, Swiss albino mice", "text": "The in vitro studies indicate that hydroxychavicol and other compounds of the present invention induce killing of a variety of cancer cell lines including breast cancer cell line MCF-7 (Table 5). The MCF-7 cell line is of epithelial origin. Studies were extended in vivo in mouse model for a tumor of epithelial origin. Ehrlich ascites carcinoma is a tumor of epithelial origin (Cancer Research, 1958, 18, 1167-1185). EAC was established in Swiss albino mice as described (Biochemical and Biophysical Research Communications, 2001, 288, 658-665). Swiss albino mice were injected with EAC (2×10^6 cells/mouse) intraperitoneally. 2 days post-injection of tumor cells, these mice (5 per group) were injected intraperitoneally with Compound No. 1 (hydroxychavicol) (30 mg/kg body weight) or Compound No. 7 (30 mg/kg body weight) thrice a week for three weeks. One week after the last injection, mice were sacrificed, and viable cells from peritoneal cavity were counted microscopically. Vehicle (dimethyl sulphoxide [DMSO], 0.1%) was used as control."}, "U937 cells": {"tested_on": "U937 cells", "assay": "Morphology and apoptosis/necrosis in U937 cells (Giemsa; annexin V-FITC/PI flow cytometry)", "assay_type": "cell-based, human", "details": "24 hours", "procedure": "U937 cells were treated with standard growth medium alone or with standard growth medium containing hydroxychavicol (30 μM) for 24 hours. Treated and untreated cells were stained with Giemsa and viewed under microscope (magnification ×1000). For measurement of apoptosis/necrosis, cells were left untreated or treated with Compound No. 1 (30 μM) or Compound No.7 (15 μM) for 24 hours. After washing, cells were stained with fluorescein isothiocyanate (FITC)-conjugated annexin V and propidium iodide (PI) and analysed in a flow cytometer (BD LSR, Becton Dickinson).\nFIG. 2B indicates flow cytometric determination of apoptosis and necrosis by Compound No.1 (hydroxychavicol) and Compound No.7. Apoptosis and necrosis of U937 cells were induced. Cells were left untreated (extreme left panel), or incubated with Compound No.1 (30 μM) (middle panel) or Compound No.7 (extreme right panel) (15 μM) for 24 hours and processed for flow cytometry after staining with annexin V-FITC and propidium iodide (PI). Viable cells are in the lower left quadrant (stained neither by annexin V nor by PI), early apoptotic cells (stained by annexin V only) are in the lower right quadrant, late-stage apoptotic cells (stained by both annexin V and PI) are in the upper right quadrant and the necrotic cells (stained by PI only) are in the upper left quadrant."}, "[7]": {"tested_on": "chronic myeloid leukemia cell line K562", "assay": "Cell viability, trypan blue exclusion, K562", "assay_type": "cell-based", "details": "Homo sapiens", "text": "as §1"}, "[8]": {"tested_on": "acute myeloid leukemia cell line HL60", "assay": "Cell viability, trypan blue exclusion, HL-60", "assay_type": "cell-based", "details": "Homo sapiens", "text": "as §1"}, "[9]": {"tested_on": "Normal human peripheral blood mononuclear cells (PBMC)", "assay": "Cell viability, trypan blue exclusion, normal PBMC", "assay_type": "cell-based", "details": "72 hours incubation", "text": "as §1"}, "MCF-7 xenografts": {"tested_on": "MCF-7 xenografts", "assay": "Human breast adenocarcinoma (MCF-7) xenograft in nude mice", "assay_type": "in vivo", "details": "100 mg/kg body weight oral twice a day for 10 days", "procedure": "MCF-7 cells were suspended to 5×10^7 cells/ml in Matrigel (BD Biosciences; 1 volume of cells with 1 volume of cold Matrigel). Nude female mice of 6 to 7 weeks of age (National Institute of Nutrition, Hyderabad, India) were injected with 0.2 ml of this cell suspension. Animals were left untreated until MCF-7 xenografts reached 200-300 mm^3.\nCompound 1 (100 mg/kg body weight) or vehicle control were administered via oral route twice a day for 10 days (5 mice per group)."}}, "note": "Like-named read-outs stand apart in the source and are kept apart here."}
{"smiles": "C=CCc1ccc(O)c(O)c1", "note": "[Compound 1, 4-allyl-benzene-1,2-diol]", "values": [{"measurement": "IC50", "setting": "[1]", "value": 35, "unit": "µM"}, {"measurement": "IC50", "setting": "[1]; Homo sapiens, MIA PaCa-2, 72 h", "value": "30 to 70", "unit": "µM"}, {"measurement": "IC50", "setting": "[2]", "value": 25, "unit": "µM"}, {"measurement": "IC50", "setting": "[3]", "value": 35, "unit": "µM"}, {"measurement": "IC50", "setting": "[3]; Homo sapiens, MCF7, 72 h", "value": "25 to 70", "unit": "µM"}, {"measurement": "NOS isoform involved in induced nitric oxide production and cell death", "setting": "[4]", "value": "Endothelial nitric oxide synthase (eNOS) is responsible"}, {"measurement": "IC50", "setting": "[5]", "value": 25, "unit": "µM"}, {"measurement": "Apoptosis and necrosis of normal human PBMC by flow cytometry", "setting": "normal human PBMC", "value": "remained unaffected"}, {"measurement": "In vivo efficacy against EAC tumor (viable cells from peritoneal cavity)", "setting": "[6]", "value": "effective in vivo in destroying EAC tumor"}, {"measurement": "Morphology of U937 cells (mode of killing)", "setting": "U937 cells; 30 μM, Giemsa staining, microscopy", "value": "due to both apoptosis and necrosis"}, {"measurement": "Apoptosis and necrosis of U937 cells by flow cytometry", "setting": "U937 cells; Compound No.1 30 μM, Compound No.7 15 μM, annexin V-FITC/PI", "value": "induce apoptosis and necrosis"}, {"measurement": "IC50", "setting": "[7]; K562, 72 hours incubation, trypan blue exclusion, read-out: Activity (IC50) K562", "value": 20, "unit": "µM"}, {"measurement": "IC50", "setting": "[7]; read-out: IC50 against chronic myeloid leukemia cancer cell lines (K562), range over both cell lines K562, KU812 and KU812 and over the listed compounds, read-out: IC50 against chronic myeloid leukemia cancer cell lines (K562, KU812)", "value": "13 to 52", "unit": "µM"}, {"measurement": "IC50", "setting": "[8]; 72 hours incubation, trypan blue exclusion, read-out: Activity (IC50) HL-60", "value": 25, "unit": "µM"}, {"measurement": "IC50", "setting": "[8]; range over both cell lines HL60 and U937 and over the listed compounds, read-out: IC50 against acute myeloid leukemia cancer cell line (HL60, U937)", "value": "13 to 60", "unit": "µM"}, {"measurement": "IC50", "setting": "[9]", "value": 80, "unit": "µM"}, {"measurement": "In vivo efficacy in MCF-7 xenografts", "setting": "MCF-7 xenografts", "value": "further confirmed"}]}
